Tests used:
[1] = target: T1, PAK4 (Homo sapiens, UniProt O96013); assay: PAK4 HTRF kinase assay; assay type: biochemical
T1 construct: purchased Sigma-Aldrich

[2] = test system: A549 cells; assay: Transwell cell migration assay; assay type: cell-based, human; conditions: 24 h
Method: (§1) We next examined the effects of compound 8d on the cycle progression of A549. Cells were treated with compound 8d at varying concentrations (1.0, 3.0, 9.0 μM) and vehicle (dimethyl sulfoxide−DMSO) for 24 h, and subjected to flow cytometry analysis to determine the distribution of cells in various phases of the cell cycle. […] PAK4 activity is involved in cytoskeleton dynamics and cancer cell migration and invasion; therefore, the inhibitory effect of 8d on A549 cell migration and invasion were analyzed.
(§2) Cell migration assays were evaluated in transwell chambers (Corning Incorporated, Corning, NY, USA). Cell invasion assays were evaluated in Matrigel invasion chambers (Becton-Dickinson). First, 0.5 × 10^5 tumor cells were plated in the top chamber with RPMI-1640 medium without FBS. Test compound was added to the bottom chamber with 500 µL medium containing 20% FBS. After incubation for 24 h at 37 °C, the cells were fixed in 100% methanol and stained with 0.1% crystal violet, then washed with PBS; the cells that had not migrated from the top surface of the filters were removed with cotton. Migrated cells were quantified by counting them in three randomly selected fields on the diameter under a microscope at 200× magnification

[3] = test system: A549 cell line; assay: MTT cell proliferation assay, A549; assay type: cell-based; conditions: Homo sapiens, 50% cell growth inhibition after 24 h of drug exposure
Method: (§3) Meanwhile, the tumor cell line HT1080, whose growth is not dependent on PAK4, was used to test the potential off-target effects of the potent PAK4 inhibitors.
(§4) The human pulmonary carcinoma cell line A549 and the human fibrosarcoma cell line HT1080 were cultured in RPMI-1640 medium containing 10% fetal bovine serum (FBS), at 37 °C in a humidified atmosphere containing 5% CO2.
(§5) The in vitro antiproliferative activity of some of the target compounds was determined by the MTT assay (Amresco, Seattle, WA, USA). A suspension of 100 µL human cancer cells (5 × 10^4/mL) was plated in a 96-well cell culture plate and incubated with 5% CO2 at 37 °C for 24 h. Then cells were exposed to various concentrations of compounds and further cultured for 24 h. After that, MTT was added and absorbance was measured at 490 nm using a EL × 800 microplate reader (BioTek, Winooski, VT, USA). Dose-response curves were plotted to determine the IC50 values using GraphPad Prism 5.0. Each IC50 value was expressed as mean ± standard deviation.

[4] = test system: HT1080; assay: MTT cell proliferation assay, HT1080; assay type: cell-based, human; conditions: for IC50: Homo sapiens, HT-1080, 50% cell growth inhibition after 24 h of drug exposure, MTT assay; for Activity against HT1080 (off-target check): growth not dependent on PAK4
Method: as §3, §4, §5

[5] = test system: A549 cells; assay: Matrigel cell invasion assay; assay type: cell-based, human; conditions: A549, Matrigel chamber, 24 h
Method: as §1, §2

[6] = test system: human gastric cancer cells; parameters: method as in PMID 22085492; conditions: cited from earlier work

T1 sequence (O96013 whole entry): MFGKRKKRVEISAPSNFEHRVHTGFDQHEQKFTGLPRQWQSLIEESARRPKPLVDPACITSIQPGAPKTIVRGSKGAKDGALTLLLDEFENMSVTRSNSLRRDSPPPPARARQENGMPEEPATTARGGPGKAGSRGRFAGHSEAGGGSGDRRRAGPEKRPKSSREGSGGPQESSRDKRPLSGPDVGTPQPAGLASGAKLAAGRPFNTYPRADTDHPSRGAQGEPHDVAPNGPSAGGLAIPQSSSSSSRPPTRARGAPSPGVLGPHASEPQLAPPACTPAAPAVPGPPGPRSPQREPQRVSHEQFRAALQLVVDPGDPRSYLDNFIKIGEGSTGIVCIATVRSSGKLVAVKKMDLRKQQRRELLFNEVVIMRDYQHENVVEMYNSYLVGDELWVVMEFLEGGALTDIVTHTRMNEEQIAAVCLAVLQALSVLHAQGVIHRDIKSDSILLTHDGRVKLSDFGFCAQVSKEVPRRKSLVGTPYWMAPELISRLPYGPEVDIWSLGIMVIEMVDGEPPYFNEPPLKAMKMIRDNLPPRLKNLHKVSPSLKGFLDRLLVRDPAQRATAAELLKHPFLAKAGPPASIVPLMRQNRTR

| melting point [°C] | IC50 [1] [nM] | SMILES | other results |
| --- | --- | --- | --- |
| 208.3 to 209.6 | 440 | Clc1ccc2nc(N3CCC(N4CCCCC4)CC3)nc(Nc3cc(C4CC4)[nH]n3)c2c1 [Compound 6a, ([1,4′-Bipiperidin]-1′-yl)-6-chloro-N-(5-cyclopropyl-1H-pyrazol-3-yl)quinazolin-4-amine] |  |
| 214.3 to 216.6 | 560 | Clc1ccc2nc(N3CCC(N4CCOCC4)CC3)nc(Nc3cc(C4CC4)[nH]n3)c2c1 [Compound 6b] |  |
| 239.5 to 240.8 | 850 | Clc1ccc2nc(N3CCN(c4ccccc4)CC3)nc(Nc3cc(C4CC4)[nH]n3)c2c1 [Compound 7a, 6-Chloro-N-(5-cyclopropyl-1H-pyrazol-3-yl)-2-(4-phenylpiperazin-1-yl)quinazolin-4-amine] |  |
| 204.9 to 207.5 | 240 | Cc1ccc(N2CCN(c3nc(Nc4cc(C5CC5)[nH]n4)c4cc(Cl)ccc4n3)CC2)cc1 [Compound 7b, 6-Chloro-N-(5-cyclopropyl-1H-pyrazol-3-yl)-2-(4-(p-tolyl)piperazin-1-yl)quinazolin-4-amine] |  |
| 248.7 to 251.9 | 100 | Clc1ccc2nc(N3CCN(c4ccc(Br)cc4)CC3)nc(Nc3cc(C4CC4)[nH]n3)c2c1 [Compound 7c, 2-(4-(4-Bromophenyl)piperazin-1-yl)-6-chloro-N-(5-cyclopropyl-1H-pyrazol-3-yl)quinazolin-4-amine] |  |
| 256.4 to 257.8 | 650 | FC(F)(F)c1ccc(N2CCN(c3nc(Nc4cc(C5CC5)[nH]n4)c4cc(Cl)ccc4n3)CC2)cc1 [Compound 7d, 6-Chloro-N-(5-cyclopropyl-1H-pyrazol-3-yl)-2-(4-(4-(trifluoromethyl)phenyl)piperazin-1-yl)quinazolin-4-amine] |  |
| 250 to 251.8 | 160 | Clc1ccc(N2CCN(c3nc(Nc4cc(C5CC5)[nH]n4)c4cc(Cl)ccc4n3)CC2)cc1 [Compound 7e, 6-Chloro-2-(4-(4-chlorophenyl)piperazin-1-yl)-N-(5-cyclopropyl-1H-pyrazol-3-yl)quinazolin-4-amine] |  |
| 229.9 to 232.6 | 490 | Clc1cccc(N2CCN(c3nc(Nc4cc(C5CC5)[nH]n4)c4cc(Cl)ccc4n3)CC2)c1 [Compound 7f, 6-Chloro-2-(4-(3-chlorophenyl)piperazin-1-yl)-N-(5-cyclopropyl-1H-pyrazol-3-yl)quinazolin-4-amine] |  |
| 237.1 to 239.5 | 300 | COc1ccc(N2CCN(c3nc(Nc4cc(C5CC5)[nH]n4)c4cc(Cl)ccc4n3)CC2)cc1 [Compound 7g, 6-Chloro-N-(5-cyclopropyl-1H-pyrazol-3-yl)-2-(4-(4-methoxyphenyl)piperazin-1-yl)quinazolin-4-amine] |  |
| 199.9 to 201.8 | 690 | COc1cccc(N2CCN(c3nc(Nc4cc(C5CC5)[nH]n4)c4cc(Cl)ccc4n3)CC2)c1 [Compound 7h, 6-Chloro-N-(5-cyclopropyl-1H-pyrazol-3-yl)-2-(4-(3-methoxyphenyl)piperazin-1-yl)quinazolin-4-amine] |  |
| 228.8 to 231 | 200 | Fc1ccc(N2CCN(c3nc(Nc4cc(C5CC5)[nH]n4)c4cc(Cl)ccc4n3)CC2)cc1 [Compound 7i, 6-Chloro-N-(5-cyclopropyl-1H-pyrazol-3-yl)-2-(4-(4-fluorophenyl)piperazin-1-yl)quinazolin-4-amine] |  |
| 184.4 to 186.7 | 310 | Clc1ccc2nc(N3CCN(c4ccccn4)CC3)nc(Nc3cc(C4CC4)[nH]n3)c2c1 [Compound 8a, 6-Chloro-N-(5-cyclopropyl-1H-pyrazol-3-yl)-2-(4-(pyridin-2-yl)piperazin-1-yl)quinazolin-4-amine] |  |
| 210.3 to 211.6 | 380 | COc1ccnc(N2CCN(c3nc(Nc4cc(C5CC5)[nH]n4)c4cc(Cl)ccc4n3)CC2)c1 [Compound 8b, 6-Chloro-N-(5-cyclopropyl-1H-pyrazol-3-yl)-2-(4-(4-methoxypyridin-2-yl)piperazin-1-yl)quinazolin-4-amine] |  |
| 263 to 265.4 | 87 | Cc1ccc(N2CCN(c3nc(Nc4cc(C5CC5)[nH]n4)c4cc(Cl)ccc4n3)CC2)nc1 [Compound 8c, 6-Chloro-N-(5-cyclopropyl-1H-pyrazol-3-yl)-2-(4-(5-methylpyridin-2-yl)piperazin-1-yl)quinazolin-4-amine] |  |
| 270.5 to 272.8 | 60 | Clc1ccc2nc(N3CCN(c4ccc(Br)cn4)CC3)nc(Nc3cc(C4CC4)[nH]n3)c2c1 [Compound 8d, 2-(4-(5-Bromopyridin-2-yl)piperazin-1-yl)-6-chloro-N-(5-cyclopropyl-1H-pyrazol-3-yl)quinazolin-4-amine] | Effect on cell migration [2]: decreased the migration and invasion potential; IC50 [3]: 4680 nM; IC50 [4]: 21500 nM; Activity against HT1080 (off-target check) [4]: negligible activity; Effect on cell invasion [5]: decreased the migration and invasion potential |
| 247.6 to 259.6 | 220 | FC(F)(F)c1ccc(N2CCN(c3nc(Nc4cc(C5CC5)[nH]n4)c4cc(Cl)ccc4n3)CC2)nc1 [Compound 8e, 6-Chloro-N-(5-cyclopropyl-1H-pyrazol-3-yl)-2-(4-(5-(trifluoromethyl)pyridin-2-yl)piperazin-1-yl)quinazol-in-4-amine] |  |
| 249.3 to 250.5 | 380 | Clc1ccc2nc(N3CCN(c4ncccn4)CC3)nc(Nc3cc(C4CC4)[nH]n3)c2c1 [Compound 9a, 6-Chloro-N-(5-cyclopropyl-1H-pyrazol-3-yl)-2-(4-(pyrimidin-2-yl)piperazin-1-yl)quinazolin-4-amine] |  |
| 262.8 to 264.7 | 110 | Cc1cnc(N2CCN(c3nc(Nc4cc(C5CC5)[nH]n4)c4cc(Cl)ccc4n3)CC2)nc1 [Compound 9b, 6-Chloro-N-(5-cyclopropyl-1H-pyrazol-3-yl)-2-(4-(5-methylpyrimidin-2-yl)piperazin-1-yl)quinazolin-4-amine] |  |
| 280.6 to 282.7 | 68 | Clc1ccc2nc(N3CCN(c4ncc(Br)cn4)CC3)nc(Nc3cc(C4CC4)[nH]n3)c2c1 [Compound 9c, 2-(4-(5-Bromopyrimidin-2-yl)piperazin-1-yl)-6-chloro-N-(5-cyclopropyl-1H-pyrazol-3-yl)quinazolin-4-amine] | IC50 [3]: 4750 nM; IC50 [4]: 39300 nM; Activity against HT1080 (off-target check) [4]: negligible activity |
|  |  | COc1cccc(Nc2nc(NCC3CCCO3)c3ccccc3n2)c1 (centres unmarked) [LCH-7749944, N^2-(3-methoxyphenyl)-N^4-((tetrahydrofuran-2-yl)methyl)quinazoline-2,4-diamine] | Effect on proliferation, migration, and invasion [6]: effectively suppressed |
